Source: US6833456B2, “Indolyl-urea derivatives of thienopyridines useful as antiangiogenic agents, and methods for their use” (Agouron Pharmaceuticals, Inc., priority 2002, dated 2004)

Assays:
[1] = target: T1, unphosphorylated VEGF-R2Δ50 (FLVK) (Homo sapiens, UniProt P35968, DEL940-989/E990V); assay: VEGF-R2 coupled spectrophotometric assay, unphosphorylated construct (FLVK); format: biochemical; conditions: for inhibition at 0.05 µM: percent inhibition at 50 nM
T1 construct: VEGF-R2Δ50 contains residues 806-939 and 990-1171; made in house; host or cells: baculovirus/insect cell system
T1 sequence (P35968 with tags, fused parts or gaps DEL940-989/E990V limits assumed): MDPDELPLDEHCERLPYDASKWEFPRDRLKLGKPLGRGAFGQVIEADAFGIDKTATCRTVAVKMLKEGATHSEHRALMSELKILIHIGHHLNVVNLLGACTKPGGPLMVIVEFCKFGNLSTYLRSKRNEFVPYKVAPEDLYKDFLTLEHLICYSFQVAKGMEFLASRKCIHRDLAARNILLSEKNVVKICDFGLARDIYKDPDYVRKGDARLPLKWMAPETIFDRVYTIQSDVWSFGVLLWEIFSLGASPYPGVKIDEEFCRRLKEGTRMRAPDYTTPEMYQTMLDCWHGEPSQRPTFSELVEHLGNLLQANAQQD
Outline: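 Human VEGF-R2Δ50 cytosolic kinase (residues 806-939/990-1171, E990V), baculovirus-expressed, unphosphorylated form. PK/LDH-coupled NADH oxidation at 340 nm with 20 mM poly(E4Y1), 3 mM ATP, 60 mM MgCl2, 2 mM MnCl2, 200 mM HEPES pH 7.5, 5-40 nM enzyme; Ki fitted by Morrison equation.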

KDR (VEGFR2) = target: T2, KDR (VEGFR2) (Homo sapiens, UniProt P35968); assay: KDR (VEGFR2) phosphorylation in PAE-KDR cells assay; format: cell-based; conditions: PAE cells overexpressing human KDR, VEGF stimulated; read-out: PAE KDR autophos IC50
T2 construct: expressed in transfected cells; host or cells: porcine aorta endothelial (PAE) cells
T2 sequence (P35968 20-1356): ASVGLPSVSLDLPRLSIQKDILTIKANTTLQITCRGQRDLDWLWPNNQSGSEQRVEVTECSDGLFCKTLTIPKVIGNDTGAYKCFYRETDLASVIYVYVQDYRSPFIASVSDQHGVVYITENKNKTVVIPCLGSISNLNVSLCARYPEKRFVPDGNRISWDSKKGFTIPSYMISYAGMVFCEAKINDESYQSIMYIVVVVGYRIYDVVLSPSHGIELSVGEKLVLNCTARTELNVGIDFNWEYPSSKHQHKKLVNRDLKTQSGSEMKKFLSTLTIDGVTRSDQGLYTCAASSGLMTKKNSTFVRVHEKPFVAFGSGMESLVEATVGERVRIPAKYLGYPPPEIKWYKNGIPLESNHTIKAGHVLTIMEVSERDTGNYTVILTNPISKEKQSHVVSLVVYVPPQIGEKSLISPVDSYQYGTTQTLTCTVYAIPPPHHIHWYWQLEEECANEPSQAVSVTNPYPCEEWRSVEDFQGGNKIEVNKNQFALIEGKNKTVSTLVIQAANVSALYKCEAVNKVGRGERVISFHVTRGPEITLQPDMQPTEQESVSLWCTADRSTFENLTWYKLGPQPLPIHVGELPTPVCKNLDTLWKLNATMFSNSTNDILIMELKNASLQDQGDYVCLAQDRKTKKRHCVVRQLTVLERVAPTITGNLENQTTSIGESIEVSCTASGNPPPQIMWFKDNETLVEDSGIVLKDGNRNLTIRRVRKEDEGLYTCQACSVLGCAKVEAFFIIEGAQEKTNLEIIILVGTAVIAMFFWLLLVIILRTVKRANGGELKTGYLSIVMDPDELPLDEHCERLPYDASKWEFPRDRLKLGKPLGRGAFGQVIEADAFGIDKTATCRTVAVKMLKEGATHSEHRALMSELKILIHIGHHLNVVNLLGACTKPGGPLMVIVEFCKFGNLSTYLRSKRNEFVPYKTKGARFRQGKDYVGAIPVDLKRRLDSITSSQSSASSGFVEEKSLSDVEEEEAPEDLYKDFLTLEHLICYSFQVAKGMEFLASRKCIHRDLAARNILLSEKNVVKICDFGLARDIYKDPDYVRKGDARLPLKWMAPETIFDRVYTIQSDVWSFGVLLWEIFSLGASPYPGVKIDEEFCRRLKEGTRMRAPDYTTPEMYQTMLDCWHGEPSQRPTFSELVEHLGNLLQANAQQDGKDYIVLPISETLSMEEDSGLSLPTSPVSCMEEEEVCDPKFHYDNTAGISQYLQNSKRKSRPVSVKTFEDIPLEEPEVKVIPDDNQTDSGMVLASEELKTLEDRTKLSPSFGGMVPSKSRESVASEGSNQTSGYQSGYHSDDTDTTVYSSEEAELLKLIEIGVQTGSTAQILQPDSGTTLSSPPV
Protocol: This assay determines the ability of a test compound to inhibit the autophosphorylation of KDR in porcine aorta endothelial (PAE)-KDR cells. PAE cells that overexpress human KDR were used in this assay. The cells were cultured in Ham's F12 media supplemented with 10% fetal bovine serum (FBS) and 400 ug/mL G418. Thirty thousands cells were seeded into each well of a 96-well plate in 75 μL of growth media and allowed to attach for 6 hours at 37° C. Cells were then exposed to the starvation media (Ham's F12 media supplemented with 0.1% FBS) for 16 hours. After the starvation period was over, 10 μL of test agent in 5% DMSO in starvation media were added to the test wells and 10 μL of the vehicle (5% DMSO in starvation media) were added into the control wells. The final DMSO concentration in each well was 0.5%. Plates were incubated at 37° C. for 1 hour and the cells were then stimulated with 500 ng/ml VEGF (commercially available from R & D System) in the presence of 2 mM Na3VO4 for 8 minutes. The cells were washed once with 1 mm Na3VO4 in HBSS and lysed by adding 50 μL per well of lysis buffer. One hundred μL of dilution buffer were then added to each well and the diluted cell lysate was transferred to a 96-well goat ant-rabbit coated plate (commercially available from Pierce) which was pre-coated with Rabbit anti Human Anti-flk-1 C-20 antibody (commercially available from Santa Cruz). The plates were incubated at room temperature for 2 hours and washed seven times with 1% Tween 20 in PBS. HRP-PY20 (commercially available from Santa Cruz) was diluted and added to the plate for a 30-minute incubation. Plates were then washed again and TMB peroxidase substrate (commercially available from Kirkegaard & Perry) was added for a 10-minute incubation. One hundred μL of 0.09 N H2SO4 was added to each well of the 96-well plates to stop the reaction. Phosphorylation status was assessed by spectrophotometer reading at 450 nm. IC50 values were calculated by curve fitting using a four-parameter analysis.

PDGFRβ = target: T3, PDGFRβ (Homo sapiens, UniProt P09619); assay: PAE-PDGFRβ phosphorylation in PAE-PDGFRB cells assay; format: cell-based; conditions: PAE cells overexpressing human PDGFRβ, PDGF-BB stimulated; read-out: PAE PDGFR autophos IC50
T3 construct: expressed in transfected cells; host or cells: porcine aorta endothelial (PAE) cells
T3 sequence (P09619 33-1106): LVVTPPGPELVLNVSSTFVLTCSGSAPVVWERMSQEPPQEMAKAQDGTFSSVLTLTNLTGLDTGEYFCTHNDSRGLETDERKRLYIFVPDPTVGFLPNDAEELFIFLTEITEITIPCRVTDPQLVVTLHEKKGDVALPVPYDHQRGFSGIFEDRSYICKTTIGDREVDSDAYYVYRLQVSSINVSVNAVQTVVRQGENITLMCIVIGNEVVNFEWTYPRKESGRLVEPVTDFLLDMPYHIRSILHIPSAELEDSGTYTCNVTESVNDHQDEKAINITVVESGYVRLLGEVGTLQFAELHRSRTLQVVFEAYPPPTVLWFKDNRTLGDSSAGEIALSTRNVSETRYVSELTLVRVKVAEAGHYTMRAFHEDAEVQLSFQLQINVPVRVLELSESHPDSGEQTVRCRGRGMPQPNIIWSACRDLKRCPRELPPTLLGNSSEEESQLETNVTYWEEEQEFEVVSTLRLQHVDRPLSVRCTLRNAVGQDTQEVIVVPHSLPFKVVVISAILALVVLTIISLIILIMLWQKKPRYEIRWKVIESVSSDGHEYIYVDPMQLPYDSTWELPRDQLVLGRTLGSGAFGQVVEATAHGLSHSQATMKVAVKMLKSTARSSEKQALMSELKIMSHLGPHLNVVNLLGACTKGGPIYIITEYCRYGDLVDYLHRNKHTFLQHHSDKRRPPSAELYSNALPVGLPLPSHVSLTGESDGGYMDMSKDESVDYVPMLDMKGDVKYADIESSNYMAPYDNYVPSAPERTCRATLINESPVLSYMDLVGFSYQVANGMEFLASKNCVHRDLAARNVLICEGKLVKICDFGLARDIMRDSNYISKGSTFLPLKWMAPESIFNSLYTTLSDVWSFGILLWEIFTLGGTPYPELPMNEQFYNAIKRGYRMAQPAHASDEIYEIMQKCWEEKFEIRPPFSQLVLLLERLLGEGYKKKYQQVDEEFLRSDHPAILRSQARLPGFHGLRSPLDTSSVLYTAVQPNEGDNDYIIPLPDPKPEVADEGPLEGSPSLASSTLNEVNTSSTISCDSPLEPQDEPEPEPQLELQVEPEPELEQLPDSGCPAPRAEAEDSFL
Outline: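 PAE cells overexpressing human PDGFRβ, serum-starved 16 h (0.1% FBS), compound 1 h at 37° C (0.5% DMSO), then 1 μg/mL PDGF-BB with 2 mM Na3VO4 for 8 min. Receptor captured by anti-PDGFRβ, phosphotyrosine detected by HRP-PY20/TMB at 450 nm; IC50 by four-parameter fit.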

HUVEC = assay: bFGF HUVEC proliferation; format: cell-based, human; conditions: Homo sapiens, HUVEC, bFGF stimulated HUVEC
[2] = tested on: human umbilical vein endothelial cells (HUVEC); assay: HUVEC+VEGF proliferation assay; format: cell-based; conditions: Homo sapiens, HUVEC, 72 h, VEGF 6 ng/mL, MTT
Outline: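 HUVEC (passage 3-4), serum-starved 24 h in F12K + 1% FBS, were pre-treated with compound for 1 h (0.1% DMSO final). They were then stimulated with VEGF at 6 ng/mL final. Proliferation was measured after 72 h by MTT dye reduction (4 h), with absorbance read at 595 nm.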

Mouse PK assay = format: in vivo, B6 female mice; conditions: po; for AUC / Cmax: female, B6, mouse, plasma, 50 mg/kg; for Cmax: p.o., read-out: Mouse Cmax, po ng-h/mL
Outline: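 Plasma levels were measured by HPLC with UV detection after acetonitrile precipitation, using extracted standards, in blood taken up to 4 h (0.5, 1, 2, 4 h) post-dose. Dosing: 50 mg/kg orally or intraperitoneally to two groups of four female B6 mice, vehicle PEG 400:acidified H2O 30:70 suspension.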

[3] = Human liver microsome (HLM) assay; format: in vitro ADME; conditions: human liver microsomes
Protocol: Compound metabolism in human liver microsomes was measured by LC-MS analytical assay procedures as follows. First, human liver microsomes (HLM) were thawed and diluted to 5 mg/mL with cold 100 mM potassium phosphate (KPO4) buffer. Appropriate amounts of KPO4 buffer, NADPH-regenerating solution (containing B-NADP, glucose-6-phosphate, glucose-6-phosphate dehydrogenase, and MgCl2), and HLM were preincubated in 13×100 mm glass tubes at 37° C. for 10 min. (3 tubes per test compound—triplicate). Test compound (5 μM final) was added to each tube to initiate reaction and was mixed by gentle vortexing, followed by incubation at 37° C. […] Samples were centrifuged at 4000 rpm for 20 min. to precipitate proteins and salt (Beckman Allegra 6KR, S/N ALK98DO6, #634). Supernatant was transferred to new 12×75 mm glass tubes and evaporated by Speed-Vac centrifugal vacuum evaporator. Samples were reconstituted in 200 μL 0.1% formic acid/acetonitrile (90/10) and vortexed vigorously to dissolve. The samples were then transferred to separate polypropylene microcentrifuge tubes and centrifuged at 14000×g for 10 min. (Fisher Micro 14, S/N M0017580). […]
The combined compound samples were injected into the LC-MS system, composed of a Hewlett-Packard HP1100 diode array HPLC and a Micromass Quattro II triple quadruple mass spectrometer operating in positive electrospray SIR mode (programmed to scan specifically for the molecular ion of each test compound). Each test compound peak was integrated at each timepoint. […]

Row | SMILES | Ki [1] | inhibition at 0.05 µM [1] | IC50 (KDR (VEGFR2)) | IC50 (PDGFRβ) | AUC (Mouse PK assay) | Cmax (Mouse PK assay) | Mouse Cmin, po (Mouse PK assay) | % remain (HLM-NADPH, 0.5 h) [3] | % remain (HLM-UDPGA, 0.5 h) [3] | IC50 (HUVEC) | IC50 [2]
1 | Cc1cc2cc(Nc3ccnc4cc(C(=O)N5CCC[C@H]5CO)sc34)ccc2n1C(=O)NC(C)C [Example 2g, 5-(2-[(S)-2-(hydroxymethyl)pyrrolidine-1-carbonyl]thieno[3,2-b]pyridin-7-ylamino)-2-methylindole-1-carboxylic acid isopropylamide] | 29.6 nM | 82% |  |  | 542 ng·h/mL | 252 ng/mL | 6 ng/mL | 106% | 113.4% |  | > 33.3 nM
2 | CCC(=O)n1c(C)cc2cc(Oc3ccnc4cc(C(=O)N5CC[C@H](OC)C5)sc34)ccc21 [Example 10a, 2-{[(3S)-3-Methoxypyrrolidin-1-yl]carbonyl}-7-[(2-methyl-1-propionyl-1H-indol-5-yl)oxy]thieno[3,2-b]pyridine] | 4.7 nM | 64% | 1.2 nM |  |  |  |  |  |  | 21 nM | 0.79 nM
3 | CNC(=O)n1c(C)cc2cc(Oc3ccnc4cc(C(=O)N5CC(F)(F)C[C@H]5CO)sc34)ccc21 [Example 3p, 5-[2-(4,4-Difluoro-2-hydroxymethyl-pyrrolidine-1-carbonyl)-thieno[3,2-b]pyridin-7-yloxy]-2-methyl-indole-1-carboxylic acid methyl-amide] | 0.98 nM | 81% |  | 212 nM |  |  |  |  |  | 227 nM | 0.33 nM
4 | Cc1cc2cc(Nc3ccnc4cc(-c5nccn5C)sc34)ccc2n1C(=O)NC(C)C [Example 2f, 5-(2-[1-methyl-1H-imidazol-2-yl]thieno[3,2-b]pyridin-7-ylamino)-2-methylindole-1-carboxylic acid isopropylamide] |  | 2% |  |  | 10600 ng·h/mL | 7700 ng/mL | 163 ng/mL | 70.9% | 119.4% |  | 

The remaining compounds from weak to strong by Ki [1], led by results:

Row | Ki [1] | inhibition at 0.05 µM [1] | IC50 (KDR (VEGFR2)) | IC50 (PDGFRβ) | AUC (Mouse PK assay) | Cmax (Mouse PK assay) | Mouse Cmin, po (Mouse PK assay) | % remain (HLM-NADPH, 0.5 h) [3] | % remain (HLM-UDPGA, 0.5 h) [3] | SMILES | IC50 (HUVEC) | IC50 [2]
5 | 0.504 nM | 98% | 0.5 nM | 13.1 nM |  |  |  |  |  | COC[C@@H]1CCCN1C(=O)c1cc2nccc(Oc3ccc4c(cc(C)n4C(=O)NC4CC4)c3F)c2s1 [Example 5b] | 13.6 nM | 
6 | 0.228 nM | 99% | 1.47 nM | 25 nM |  |  |  |  |  | CCCNC(=O)n1c(C)cc2cc(Oc3ccnc4cc(C(=O)N5CC[C@H](OC)C5)sc34)ccc21 [Example 9d, 5-[2-(3S-Methoxy-pyrrolidine-1-carbonyl)-thieno[3,2-b]pyridin-7-yloxy]-2-methyl-indole-1-carboxylic acid propylamide] | 143 nM | 
7 | 0.1 nM | 96% | 0.569 nM | 10 nM |  |  |  |  |  | CO[C@@H]1CCN(C(=O)c2cc3nccc(Oc4ccc5c(c4)cc(C)n5C(=O)NC4CC4)c3s2)C1 [Example 4k, 5-[2-(3R-Methoxy-pyrrolidine-1-carbonyl)-thieno[3,2-b]pyridin-7-yloxy]-2-methyl-indole-1-carboxylic acid cyclopropylamide] | 5.8 nM | 
